Results taken from patent US20230085307A1, “PYRIDAZINONE COMPOUND AND HERBICIDE” (NISSAN CHEMICAL CORPORATION, priority 2019, published 2023).

Tests used:
[1] = tested on: late watergrass; assay: Test Example 1: herbicidal activity, application before weed generation under submerged conditions (Table 16, symbol A); format: in vivo, late watergrass (Echinochloa oryzicola); conditions: 320 g/ha applied herbicide
Outline: (§1)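 Emulsion formulation, water-diluted to set dose, was put onto the flooded surface (4 cm depth, alluvial soil) the same day weeds were sown and 2.5-leaf rice transplanted. After 3 weeks at 25-30 °C under glass, each species was rated 0 (≤5% kill) to 5 (≥90% kill).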

[2] = tested on: Japanese bulrush; assay: Test Example 1: herbicidal activity, application before weed generation under submerged conditions (Table 16, symbol B); format: in vivo, Japanese bulrush (Schoenoplectus juncoides); conditions: 320 g/ha applied herbicide
Outline: as §1

[3] = tested on: oval-leafed pondweed; assay: Test Example 1: herbicidal activity, application before weed generation under submerged conditions (Table 16, symbol C); format: in vivo, oval-leafed pondweed (Monochoria vaginalis); conditions: 320 g/ha applied herbicide
Outline: as §1

[4] = tested on: barnyard grass; assay: Test Example 3: herbicidal effect by foliage application, Wagner pot (Table 18, symbol H); format: in vivo, barnyard grass (Echinochloa crus-galli); conditions: 320 g/ha
Outline: (§2)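 Plants were sown in alluvial soil held under 0.1–0.5 cm standing water and grown 14 days in a greenhouse at 25–30 °C. An emulsifiable formulation, water-diluted to the set dose, was then sprayed onto the foliage, and effects were scored three weeks later using previously defined criteria.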

[5] = tested on: Chinese sprangletop; assay: Test Example 3: herbicidal effect by foliage application, Wagner pot (Table 18, symbol D); format: in vivo, chinese sprangletop (Leptochloa chinensis); conditions: 320 g/ha
Outline: as §2

[6] = tested on: rice flat sedge; assay: Test Example 3: herbicidal effect by foliage application, Wagner pot (Table 18, symbol E); format: in vivo, rice flat sedge (Cyperus iria); conditions: 320 g/ha
Outline: as §2

[7] = tested on: southern crabgrass; assay: Test Example 4: herbicidal effect by soil treatment (Table 19, symbol F); format: in vivo, southern crabgrass (Digitaria ciliaris); conditions: amount of applied herbicide 320 g/ha
Outline: (§3)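 Herbicidal effect was rated 3 weeks after treatment, using the scoring criteria of an earlier test. The compound, formulated as an emulsion and diluted in water to a set herbicide amount, had been sprayed uniformly on soil over freshly sown seeds. Growth took place in a greenhouse at 25° C. to 30° C.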

[8] = tested on: green foxtail; assay: Test Example 4: herbicidal effect by soil treatment (Table 19, symbol G); format: in vivo, green foxtail (Setaria viridis); conditions: amount of applied herbicide 320 g/ha
Outline: as §3

[9] = tested on: barnyard grass; assay: Test Example 4: herbicidal effect by soil treatment (Table 19, symbol H); format: in vivo, barnyard grass (Echinochloa crus-galli); conditions: amount of applied herbicide 320 g/ha
Outline: as §3

[10] = tested on: wild oat; assay: Test Example 4: herbicidal effect by soil treatment (Table 19, symbol I); format: in vivo, wild oat (Avena fatua); conditions: amount of applied herbicide 320 g/ha
Outline: as §3

[11] = tested on: blackgrass; assay: Test Example 4: herbicidal effect by soil treatment (Table 19, symbol J); format: in vivo, blackgrass (Alopecurus myosuroides); conditions: amount of applied herbicide 320 g/ha
Outline: as §3

[12] = tested on: Italian ryegrass; assay: Test Example 4: herbicidal effect by soil treatment (Table 19, symbol K); format: in vivo, Italian ryegrass (Lolium multiflorum); conditions: amount of applied herbicide 320 g/ha
Outline: as §3

[13] = tested on: windgrass; assay: Test Example 4: herbicidal effect by soil treatment (Table 19, symbol L); format: in vivo, windgrass (Apera spica-venti); conditions: amount of applied herbicide 320 g/ha
Outline: as §3

[14] = tested on: velvetleaf; assay: Test Example 4: herbicidal effect by soil treatment (Table 19, symbol M); format: in vivo, velvetleaf (Abutilon theophrasti); conditions: amount of applied herbicide 320 g/ha
Outline: as §3

[15] = tested on: redroot pigweed; assay: Test Example 4: herbicidal effect by soil treatment (Table 19, symbol N); format: in vivo, redroot pigweed (Amaranthus retroflexus); conditions: amount of applied herbicide 320 g/ha
Outline: as §3

[16] = tested on: lambsquarters; assay: Test Example 4: herbicidal effect by soil treatment (Table 19, symbol O); format: in vivo, lambsquarters (Chenopodium album); conditions: amount of applied herbicide 320 g/ha
Outline: as §3

[17] = tested on: chickweed; assay: Test Example 4: herbicidal effect by soil treatment (Table 19, symbol P); format: in vivo, common chickweed (Stellaria media); conditions: amount of applied herbicide 320 g/ha
Outline: as §3

[18] = tested on: false cleavers; assay: Test Example 4: herbicidal effect by soil treatment (Table 19, symbol Q); format: in vivo, false cleavers (Galium spurium); conditions: amount of applied herbicide 320 g/ha
Outline: as §3

[19] = tested on: persian speedwell; assay: Test Example 4: herbicidal effect by soil treatment (Table 19, symbol R); format: in vivo, Persian speedwell (Veronica persica); conditions: amount of applied herbicide 320 g/ha
Outline: as §3

[20] = tested on: southern crabgrass; assay: Test Example 5: herbicidal effect by foliage application, plastic box (Table 20, symbol F); format: in vivo, southern crabgrass (Digitaria ciliaris); conditions: foliage application, 320 g/ha, three weeks after application
Outline: (§4)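 Foliar spray test: emulsion formulation diluted in water to a set application rate, sprayed onto 14-day-old plants raised in diluvial soil at 25° C to 30° C under glass. Both herbicidal effect and crop effect rated visually three weeks later.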

[21] = tested on: green foxtail; assay: Test Example 5: herbicidal effect by foliage application, plastic box (Table 20, symbol G); format: in vivo, green foxtail (Setaria viridis); conditions: foliage application, 320 g/ha, three weeks after application
Outline: as §4

[22] = tested on: barnyard grass; assay: Test Example 5: herbicidal effect by foliage application, plastic box (Table 20, symbol H); format: in vivo, barnyard grass (Echinochloa crus-galli); conditions: foliage application, 320 g/ha, three weeks after application
Outline: as §4

[23] = tested on: wild oat; assay: Test Example 5: herbicidal effect by foliage application, plastic box (Table 20, symbol I); format: in vivo, wild oat (Avena fatua); conditions: foliage application, 320 g/ha, three weeks after application
Outline: as §4

[24] = tested on: blackgrass; assay: Test Example 5: herbicidal effect by foliage application, plastic box (Table 20, symbol J); format: in vivo, blackgrass (Alopecurus myosuroides); conditions: foliage application, 320 g/ha, three weeks after application
Outline: as §4

[25] = tested on: Italian ryegrass; assay: Test Example 5: herbicidal effect by foliage application, plastic box (Table 20, symbol K); format: in vivo, Italian ryegrass (Lolium multiflorum); conditions: foliage application, 320 g/ha, three weeks after application
Outline: as §4

[26] = tested on: windgrass; assay: Test Example 5: herbicidal effect by foliage application, plastic box (Table 20, symbol L); format: in vivo, windgrass (Apera spica-venti); conditions: foliage application, 320 g/ha, three weeks after application
Outline: as §4

[27] = tested on: velvetleaf; assay: Test Example 5: herbicidal effect by foliage application, plastic box (Table 20, symbol M); format: in vivo, velvetleaf (Abutilon theophrasti); conditions: foliage application, 320 g/ha, three weeks after application
Outline: as §4

[28] = tested on: redroot pigweed; assay: Test Example 5: herbicidal effect by foliage application, plastic box (Table 20, symbol N); format: in vivo, redroot pigweed (Amaranthus retroflexus); conditions: foliage application, 320 g/ha, three weeks after application
Outline: as §4

[29] = tested on: lambsquarters; assay: Test Example 5: herbicidal effect by foliage application, plastic box (Table 20, symbol O); format: in vivo, lambsquarters (Chenopodium album); conditions: foliage application, 320 g/ha, three weeks after application
Outline: as §4

[30] = tested on: chickweed; assay: Test Example 5: herbicidal effect by foliage application, plastic box (Table 20, symbol P); format: in vivo, common chickweed (Stellaria media); conditions: foliage application, 320 g/ha, three weeks after application
Outline: as §4

[31] = tested on: false cleavers; assay: Test Example 5: herbicidal effect by foliage application, plastic box (Table 20, symbol Q); format: in vivo, false cleavers (Galium spurium); conditions: foliage application, 320 g/ha, three weeks after application
Outline: as §4

[32] = tested on: persian speedwell; assay: Test Example 5: herbicidal effect by foliage application, plastic box (Table 20, symbol R); format: in vivo, Persian speedwell (Veronica persica); conditions: foliage application, 320 g/ha, three weeks after application
Outline: as §4

Row | SMILES | Herbicidal effect on A: late watergrass (grade 0-5) [1] | Herbicidal effect on B: Japanese bulrush (grade 0-5) [2] | Herbicidal effect on C: oval-leafed pondweed (grade 0-5) [3] | herbicidal effect on H (barnyard grass), rating 0-5 [4] | herbicidal effect on D (Chinese sprangletop), rating 0-5 [5] | herbicidal effect on E (rice flat sedge), rating 0-5 [6] | herbicidal effect rating, F: southern crabgrass [7] | herbicidal effect rating, G: green foxtail [8] | herbicidal effect rating, H: barnyard grass [9] | herbicidal effect rating, I: wild oat [10] | herbicidal effect rating, J: blackgrass [11] | herbicidal effect rating, K: Italian ryegrass [12] | herbicidal effect rating, L: windgrass [13] | herbicidal effect rating, M: velvetleaf [14] | herbicidal effect rating, N: redroot pigweed [15] | herbicidal effect rating, O: lambsquarters [16] | herbicidal effect rating, P: chickweed [17] | herbicidal effect rating, Q: false cleavers [18] | herbicidal effect rating, R: persian speedwell [19] | herbicidal effect grade, F: southern crabgrass [20] | other results
1 | CCCCCCOc1ccc(-c2sc3ccccc3c2-c2c(O)c(C)nn(C)c2=O)cc1 [1-028] | 1 (Herbicidal rate of 5% or more and less than 20%) | 2 (Herbicidal rate of 20% or more and less than 40%) | 0 (Herbicidal rate of 5% or less (almost no effect)) | 3 (Herbicidal rate of 40% or more and less than 70%) | 0 (Herbicidal rate of 5% or less (almost no effect)) | 4 (Herbicidal rate of 70% or more and less than 90%) | 0 (Herbicidal rate of 5% or less (almost no effect)) | 0 (Herbicidal rate of 5% or less (almost no effect)) | 0 (Herbicidal rate of 5% or less (almost no effect)) | 0 (Herbicidal rate of 5% or less (almost no effect)) | 0 (Herbicidal rate of 5% or less (almost no effect)) | 0 (Herbicidal rate of 5% or less (almost no effect)) | 0 (Herbicidal rate of 5% or less (almost no effect)) | 0 (Herbicidal rate of 5% or less (almost no effect)) | 2 (Herbicidal rate of 20% or more and less than 40%) | 0 (Herbicidal rate of 5% or less (almost no effect)) | 0 (Herbicidal rate of 5% or less (almost no effect)) | 0 (Herbicidal rate of 5% or less (almost no effect)) | 0 (Herbicidal rate of 5% or less (almost no effect)) | 0 (Herbicidal rate of 5% or less (almost no effect)) | herbicidal effect grade, G: green foxtail [21]: 4 (Herbicidal rate of 70% or more and less than 90%); herbicidal effect grade, H: barnyard grass [22]: 0 (Herbicidal rate of 5% or less (almost no effect)); herbicidal effect grade, I: wild oat [23]: 3 (Herbicidal rate of 40% or more and less than 70%); herbicidal effect grade, J: blackgrass [24]: 0 (Herbicidal rate of 5% or less (almost no effect)); herbicidal effect grade, K: Italian ryegrass [25]: 2 (Herbicidal rate of 20% or more and less than 40%); herbicidal effect grade, L: windgrass [26]: 3 (Herbicidal rate of 40% or more and less than 70%); herbicidal effect grade, M: velvetleaf [27]: 3 (Herbicidal rate of 40% or more and less than 70%); herbicidal effect grade, N: redroot pigweed [28]: 5 (Herbicidal rate of 90% or more (almost completely withered)); herbicidal effect grade, O: lambsquarters [29]: 3 (Herbicidal rate of 40% or more and less than 70%); herbicidal effect grade, P: chickweed [30]: 5 (Herbicidal rate of 90% or more (almost completely withered)); herbicidal effect grade, Q: false cleavers [31]: 4 (Herbicidal rate of 70% or more and less than 90%); herbicidal effect grade, R: persian speedwell [32]: 3 (Herbicidal rate of 40% or more and less than 70%)
2 | CCCC(=O)Oc1c(C)nn(C)c(=O)c1-c1c(-c2ccc(N(C)C)cc2)sc2ccccc12 [1-040] | 3 (Herbicidal rate of 40% or more and less than 70%) | 3 (Herbicidal rate of 40% or more and less than 70%) | 1 (Herbicidal rate of 5% or more and less than 20%) | 4 (Herbicidal rate of 70% or more and less than 90%) | 3 (Herbicidal rate of 40% or more and less than 70%) | 5 (Herbicidal rate of 90% or more (almost completely withered)) | 0 (Herbicidal rate of 5% or less (almost no effect)) | 0 (Herbicidal rate of 5% or less (almost no effect)) | 0 (Herbicidal rate of 5% or less (almost no effect)) | 0 (Herbicidal rate of 5% or less (almost no effect)) | 0 (Herbicidal rate of 5% or less (almost no effect)) | 3 (Herbicidal rate of 40% or more and less than 70%) | 0 (Herbicidal rate of 5% or less (almost no effect)) | 0 (Herbicidal rate of 5% or less (almost no effect)) | 0 (Herbicidal rate of 5% or less (almost no effect)) | 0 (Herbicidal rate of 5% or less (almost no effect)) | 0 (Herbicidal rate of 5% or less (almost no effect)) | 0 (Herbicidal rate of 5% or less (almost no effect)) | 0 (Herbicidal rate of 5% or less (almost no effect)) | 4 (Herbicidal rate of 70% or more and less than 90%) | herbicidal effect grade, G: green foxtail [21]: 5 (Herbicidal rate of 90% or more (almost completely withered)); herbicidal effect grade, H: barnyard grass [22]: 3 (Herbicidal rate of 40% or more and less than 70%); herbicidal effect grade, I: wild oat [23]: 0 (Herbicidal rate of 5% or less (almost no effect)); herbicidal effect grade, J: blackgrass [24]: 0 (Herbicidal rate of 5% or less (almost no effect)); herbicidal effect grade, K: Italian ryegrass [25]: 4 (Herbicidal rate of 70% or more and less than 90%); herbicidal effect grade, L: windgrass [26]: 0 (Herbicidal rate of 5% or less (almost no effect)); herbicidal effect grade, M: velvetleaf [27]: 5 (Herbicidal rate of 90% or more (almost completely withered)); herbicidal effect grade, N: redroot pigweed [28]: 5 (Herbicidal rate of 90% or more (almost completely withered)); herbicidal effect grade, O: lambsquarters [29]: 4 (Herbicidal rate of 70% or more and less than 90%); herbicidal effect grade, P: chickweed [30]: 5 (Herbicidal rate of 90% or more (almost completely withered)); herbicidal effect grade, Q: false cleavers [31]: 3 (Herbicidal rate of 40% or more and less than 70%); herbicidal effect grade, R: persian speedwell [32]: 5 (Herbicidal rate of 90% or more (almost completely withered))
